We go through 109 compounds from a melting point compilation (Tetko et al.).

The compound `CCOc1ccc(NS(=O)(=O)c2ccc(N)cc2)nn1` yielded a melting point of 183 °C.

In the case of `COc1ccc(C2(C#N)CCCCC2)cc1`, the melting point came out at 43 °C.

On to `COc1ccc(OCC(O)CN)cc1` (centres undefined), for which the melting point lay in the range of 110 to 112 °C. Compound `CC(=O)c1cn(C)c2ccccc12` registered a melting point of 107 °C. Take `CC(=O)OC1CCC2(C)C(CC(=O)C3C2CCC2(C)C(OC(=O)c4ccccc4)CCC32)C1` (centres undefined): the melting point is 175 °C.

Take `Clc1ccc(-c2c(Cl)cc(Cl)c(Cl)c2Cl)c(Cl)c1`: the melting point worked out at 73 °C.

`Cc1cc(C)ncn1` showed a melting point of 25 °C. The same measure for `CC=NNc1ccc([N+](=O)[O-])cc1[N+](=O)[O-]`: 166 °C. In the case of `Cn1c(=O)c(C2=NNC(=O)C2=Cc2cccc([N+](=O)[O-])c2)c(O)c2ccccc21`, the melting point was determined as 261 °C. For `O=C(c1ccccc1)c1ccc(-c2ccc(Br)cc2)cc1`, the melting point came out at 157 °C.

Compound `CC(=O)OC1CCC2(C)C(=CCC3C4CC(C)C(=O)C4(C)CCC32)C1` (centres undefined) showed a melting point of 141 °C. The same measure for `N#Cc1ccc(CC(=O)O)cc1`: 151 °C. The compound `COc1ccc(-c2onc(C(=O)c3ccc(Br)cc3)c2S(=O)(=O)c2ccccc2)cc1` yielded a melting point of 140 °C. The figure for `CCOC(=O)c1cc(I)c(N)c(I)c1` is 145 to 146 °C; for `O=C1C(=Cc2ccc(F)cc2)CCCC1=Cc1ccc(F)cc1` it is 147 to 154 °C; for `O=C1c2ccccc2OC(CCCl)N1O` (centres undefined) it is 114 to 116 °C. `CC1CC(C)(C)CC1=O` (centres undefined): the melting point is -25.6 °C. Turning to `CCCCCCCCN(CCCCCCCC)CCCCCCCC`, the melting point was determined as 34 °C.

Compound `NP(=O)(Oc1ccccc1)Oc1ccccc1` gave a melting point of 149 °C. As for `C/C(=N/NC(N)=S)C(=O)Nc1ccccc1`, the melting point fell in the range of 211 to 213 °C.

On to `NC(=O)C1CCN(C(=O)OCc2ccccc2)CC1`, for which the melting point fell in the range of 130 to 132 °C. The same measure for `COc1ccccc1N/N=C1\C(=O)N(CN2CCCCC2)N=C1C`: 148 °C. `N=C1NC(=O)C(=NNc2cccc([N+](=O)[O-])c2)S1` gave a melting point of 208 °C. As to `O=C(O)c1cccc(-c2cccnc2)c1`, the melting point lay in the range of 202 to 206 °C. The compound `CC(=O)Nc1ccc(C2=NNC(=O)CC2)cc1` came in with a melting point of 250 to 253 °C. On to `COc1ccc(C=Nn2c(S)nnc2CCn2c(C)nc3ccccc32)cc1`, for which the melting point was found to be 262 °C. In turn, `CCCCC(=O)Cl` showed a melting point of -110 °C. As to `Brc1cccc2c(CNCc3cccc4c(Br)cccc34)cccc12`, the melting point stood at 142 °C. Consider `CON=C(C)c1cccc(Oc2nc(OC)cc(OC)n2)c1C(=O)OC`, for which the melting point turned out to be 107 °C. `CSc1ccc(N)cc1C(F)(F)F` gave a melting point of 57 °C. `COc1cc(CCN(Cc2cccc(O)c2)C(=O)C(F)(F)F)ccc1O` registered a melting point of 51 °C. `CC1=C(C)C(O)OC1=O` (centres undefined) had a melting point of 82 °C. With `CC1CCC(C(C)C)/C(=N\NC(N)=O)C1` (centres undefined), the melting point is 216 to 217 °C.

`CCCCCCCCCCCCCCCCCCC1CCCCC1` yielded a melting point of 41.6 °C. Compound `Brc1ccc(N2CCCC2)cc1` came in with a melting point of 105 to 106 °C. `Cc1ccc(-c2nnc(-c3ccccc3)c3c(C)onc23)cc1` returned a melting point of 206 °C. In the case of `CC(C)(C)OC(=O)NC(CCC(N)=O)C(=O)O` (centres undefined), the melting point was found to be 119 °C.

The compound `CCCCCCCCCCCCCCCC#N` gave a melting point of 31 °C. The compound `c1ccc(CC(c2ccccc2)c2ccccc2)cc1` returned a melting point of 52 °C. `CN(c1ccccc1)c1ccccc1` registered a melting point of -7.6 °C. The figure for `OCCNCCNCCO` is 97.5 °C; for `O=C(O)c1cc(Br)ccc1O` it is 170 °C; for `Cc1ccc(Sc2ccc([N+](=O)[O-])cc2C=O)cc1` it is 157 to 158 °C. Compound `Nc1ccc(Br)cc1C(=O)c1ccccc1F` came in with a melting point of 100 to 104 °C. For the compound `CCCCOC(=O)C1=C(C)NC(=O)NC1c1ccco1` (centres undefined), the melting point is 170 °C. `CC1(C)OC(c2ccco2)CN1C(=O)C(Cl)Cl` (centres undefined) showed a melting point of 97 °C.

Take `N#Cc1cc(C(F)(F)F)ccc1Cl`: the melting point was 38.5 °C. On to `CCCCCCCCCCCCCCCC(OC)OC`, for which the melting point came out at 10 °C.

Compound `CC(C)(C)c1cnc(C(=O)Nc2cc(C(F)(F)F)cc(C(F)(F)F)c2)cn1` yielded a melting point of 136 °C. In turn, `COC(=O)c1c(SC)nc(-c2ccccc2)[nH]c1=O` yielded a melting point of 283 to 285 °C. The compound `Clc1ccnc(Cl)n1` returned a melting point of 60 °C. The figure for `CCCCCCCCC=CCCCCCCCC(=O)Nc1ccccc1` is 41 °C. `N#CC(C#N)=C1c2cc([N+](=O)[O-])ccc2-c2c1cc([N+](=O)[O-])cc2[N+](=O)[O-]`: the melting point is 267 °C. Compound `Cc1ccc(N)c(O)c1` displayed a melting point of 157 °C. `O=C(C=CC(=O)OCC(F)(F)C(F)(F)C(F)(F)C(F)(F)C(F)(F)C(F)(F)C(F)(F)F)OCC(F)(F)C(F)(F)C(F)(F)C(F)(F)C(F)(F)C(F)(F)C(F)(F)F` gave a melting point of 82 to 84 °C. Take `O=S(=O)(CCSCCO)c1ccc(Cl)cc1`: the melting point was in the range of 59 to 62 °C. With `O=CC(C=O)c1ccncn1`, the melting point is 227 to 232 °C. `CC(=O)Nc1cccnc1`: the melting point fell in the range of 131 to 133 °C.

Take `Cc1nccc2c1[nH]c1ccccc12`: the melting point turned out to be 236 °C.

For `O=[N+]([O-])c1cc(-c2ccc(O)cc2)ccc1O`, the melting point worked out at 182 °C. `ON=Cc1ccc(Cl)cc1Cl` displayed a melting point of 134 to 136 °C. `c1ccc2c(c1)ccc1nncn12`: the melting point was in the range of 175 to 177 °C. In the case of `Brc1ccc(-c2cccs2)cc1`, the melting point fell in the range of 95 to 96 °C. With `Cc1ccc(OP(=O)(Oc2ccc(C)c(C)c2)Oc2ccc(C)c(C)c2)cc1C`, the melting point was 72 °C. The figure for `CCCCCCCC(=O)NN` is 88 °C; for `CCN(CC)c1ccccc1C` it is -60 °C; for `CC(=O)OC1CC[C@H]2[C@@H]3CC[C@@H]4C(Br)C(=O)CC[C@]4(C)[C@H]3CC[C@]12C` (some centres undefined) it is 181 °C.

Compound `Ic1cccc2cccc(I)c12` had a melting point of 106 °C. As for `CC(=O)Nc1ccc([N+](=O)[O-])cn1`, the melting point was 200 °C. The figure for `Cc1nc2ccccn2c1Br` is 73 to 74 °C; for `N#Cc1ccc(N2CCCC2)cn1` it is 106 to 108 °C; for `O=S(=O)(n1ccnc1)n1ccnc1` it is 135 to 137 °C.

In turn, `Oc1cc(Cl)cc(Cl)c1O` registered a melting point of 82.5 °C.

Compound `COC(=O)c1ccccc1-n1c(SC)nc2ccccc2c1=O` gave a melting point of 178 to 180 °C.

`S=C=Nc1cc(Cl)cc(Cl)c1` yielded a melting point of 46 °C. With `Oc1ccc2c(c1)C13CCCCC1C(C2)NCC3` (centres undefined), the melting point came out at 271 °C. As for `O=Cc1ccc2[nH]cnc2c1`, the melting point is 159 to 161 °C.

In the case of `O=C(CCBr)N1CCN(C(=O)CCBr)CC1`, the melting point came out at 106 °C. `COC(=O)c1sccc1OC` showed a melting point of 62 °C. The figure for `O=S(=O)(Oc1ccc(Cl)cc1Cl)c1ccccc1` is 45.5 °C. `O=[N+]([O-])c1ccc(-c2nc(-c3ccccc3)c(-c3ccccc3)[nH]2)cc1` returned a melting point of 243 to 246 °C. As for `CC(C)(C)OC(=O)NC(C)(C)C(=O)O`, the melting point lay in the range of 117 to 121 °C. As to `Nc1nnc(Sc2ncccc2[N+](=O)[O-])s1`, the melting point amounted to 216 °C. In turn, `COc1ccc(C2(C)C=C(C)N=N2)cc1` (centres undefined) had a melting point of 70 °C. The figure for `CC1(C)CCCC(C)(C)N1` is 28 °C; for `N[C@H](C(=O)O)C1CCCCC1` it is 256 °C. With `Cn1ncc2c(NNC3=CC(=O)c4ccccc4C3=O)ncnc21`, the melting point turned out to be 226 °C. Consider `O=C1N[C@H]2[C@H](CS[C@H]2CCCCC(=O)ON2C(=O)CCC2=O)N1`, for which the melting point was found to be 212 °C. Compound `CC(CN(CC(=O)O)CC(=O)O)N(CC(=O)O)CC(=O)O` (centres undefined) had a melting point of 241 to 243 °C. The figure for `Nc1cc(-c2ccco2)[nH]n1` is 126 °C; for `O=[N+]([O-])c1c(O)ccc2ccccc12` it is 104 °C; for `CC(=O)NCCc1ccccc1` it is 48 to 52 °C. `COc1ccc(-c2n[nH]cc2C=O)cc1` returned a melting point of 160 to 161 °C. The figure for `O=[N+]([O-])c1cc(Br)cc2c1NCC2` is 131 °C. As for `O=C=Nc1cccc(-n2cccc2)c1`, the melting point fell in the range of 46 to 47 °C. `N#CC(O)C(Cl)(Cl)Cl` (centres undefined) gave a melting point of 61 °C. The same measure for `Nc1nn(-c2ccccc2)c2nc3ccccc3nc12`: 210 °C; for `CO/C(C)=C(\C#N)c1ccccc1[N+](=O)[O-]`: 66 to 69 °C; for `O=[N+]([O-])c1c(Cl)ncnc1Cl`: 102 °C. The same measure for `Cc1nn(-c2ccccc2)c(C)c1C=O`: 125 to 128 °C; for `CC(=O)Nc1cccc2c1ccc1nc(-c3ccccc3)c(-c3ccccc3)nc12`: 249 °C; for `O=C(O)[C@@H]1Cc2c([nH]c3ccccc23)CN1`: 295 to 296 °C. Compound `CC(=O)OC1=C(C)C2(OC(C)=O)CCC1C1C(=O)NC(=O)C12` (centres undefined) showed a melting point of 161 to 162 °C. The figure for `O=Cc1ccc(Br)cc1F` is 61 °C.

The compound `COc1ccc(CN2CCc3ccccc3C2)cc1O` showed a melting point of 129 °C.

Consider `COc1ccc2c(c1)/C(=N/Nc1ccc([N+](=O)[O-])cc1[N+](=O)[O-])C2`, for which the melting point lay in the range of 220 to 222 °C. `CCC(C)(C)c1ccc(O)cc1` came in with a melting point of 95 °C. In turn, `CCC12CCCN3CCc4c(n(c5ccccc45)C(=O)C1)C32` (single isomer, unassigned; (-)) came in with a melting point of 173 to 177 °C. The figure for `O=C1c2cccc(O)c2C(=O)c2c(O)cc(CO)cc21` is 224 °C.
